# Counter-ions that a name gives are not always drawn.
# Legend:
# [1] = Solubility in phosphate buffered saline (receiver fluid); assay type: physicochemical; settings: aqueous buffer
# Excerpt: (§1) Accurate determination of the rate of transport of buspirone through the skin relies upon the maintenance of sink conditions in the receiver fluid. […] Such high solubility was sufficient to ensure sink conditions for the study.
# [2] = Stability in the receiver fluid; assay type: physicochemical; settings: PBS receiver fluid, length of the study (48 hours)
# Excerpt: as §1
# [3] = tested on: oxazolone hypersensitivity reaction; settings: mice, cited from earlier work
smiles,measurement,setting,value
O=C1CC2(CCCC2)CC(=O)N1CCCCN1CCN(c2ncccn2)CC1 [buspirone hydrochloride],solubility,[1],> 3000 µg/mL
"O=C1CC2(CCCC2)CC(=O)N1CCCCN1CCN(c2ncccn2)CC1 [buspirone, 8-[4-[4-(2-pyrimidyl)-1-piperazinyl]butyl]-8-azaspiro[4.5]decane-7,9-dione]",stability in the receiver fluid,[2],stable
same,oxazolone ear swelling,"[3]; applied topically in an undefined solution, over the range 100 mg/ml to 0.25 mg/ml, McAloon et al. 1995",inhibits oxazolone ear swelling
same,inhibition of oxazolone hypersensitivity reactions,"[3]; from U.S. Pat. No. 5,484,788, 5,631,017, WO 94/22448",inhibit oxazolone hypersensitivity reactions

# From patent US20060088556A1 (priority 2003, published 2006)
